# Data from US6309842A, “Use of modified tethers in screening compound libraries” (Glaxo Wellcome Inc., priority 1997, dated 2001).
# Target: T1, yeast α-factor receptor (STE2) (Saccharomyces cerevisiae, UniProt D6VTK4)
# T1 construct: expressed in transfected cells; host or cells: yeast strain ARY84 (Δste2::ura3, plasmid pRS416(URA3)-STE2)
# T1 sequence (D6VTK4 1-431): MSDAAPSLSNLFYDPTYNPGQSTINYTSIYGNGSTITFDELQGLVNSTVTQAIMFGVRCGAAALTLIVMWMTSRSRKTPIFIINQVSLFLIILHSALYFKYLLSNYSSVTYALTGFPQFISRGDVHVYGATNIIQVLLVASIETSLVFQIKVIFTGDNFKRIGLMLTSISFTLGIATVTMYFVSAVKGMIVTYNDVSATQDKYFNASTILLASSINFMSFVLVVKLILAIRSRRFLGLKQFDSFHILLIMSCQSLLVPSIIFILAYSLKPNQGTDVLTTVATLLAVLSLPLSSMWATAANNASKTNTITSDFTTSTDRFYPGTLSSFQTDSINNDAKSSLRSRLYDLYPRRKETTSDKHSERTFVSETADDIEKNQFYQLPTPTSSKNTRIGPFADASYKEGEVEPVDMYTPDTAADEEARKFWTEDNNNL
# Experiment: Secretion of acid phosphatase into the medium by yeast ARY84 (pNPP assay)
# Type: cell-based
# Conditions: for % of total acid-phosphatase activity in medium: 24 Hrs; for Induction ratio: growth selection, 500 nM vs no alpha-factor
# Excerpt: The strain used in these experiments is designated ARY84 (Mata prc1-407 prb1-1122 pep4-3 leu2, 3-112 ura3-52 trp1 far1::ura3 Δhis3::APT2 FUS1::HIS3 Δste2::ura3 Δsst2::ura3 Δpho5::TRP1 LEU2::pCMGy64(::FUS1-PHO3) [pRS416(URA3)-STE2]. This yeast is engineered to grow in the presence of an agonist, and also to secrete acid phosphatase as a result of agonist stimulation. The yeast strain used in these experiments bears a mutation in the SST2 gene to enhance sensitivity to agonist, an inactivating mutation in the FAR1 gene to allow growth in the presence of agonist and an inactivating mutation in the HIS3 gene. The FUS1 gene promoter stimulates transcription of two reporter genes. The first reporter gene is HIS3. 3-aminotriazole can be used to titrate out the background activity of the HIS3 gene product resulting in growth arrest due to histidine starvation. Stimulation of HIS3 transcription from the FUS1 promoter overcomes the inhibitory effect of 3-aminotriazole, allowing growth of agonist-stimulated yeast cells. The second reporter gene is PHO3 (which was obtained by PCR from yeast genomic DNA). This gene encodes secreted yeast acid phosphatase (see Johnston & Carlson, in The Molecular and Cellular Biology of the Yeast Saccharomyce, (eds. Jones et al., CSHP, 1992) Vol. 2, Ch. 5). STE2 encodes the yeast α-factor receptor. The mutation in the […] reduces the background of acid phosphatase secreted by the yeast, though this mutation may not be necessary.
# α-factor is the natural peptide agonist of the yeast α-factor receptor. The term "Growth selection" refers to growing the yeast in a defined medium (e.g., synthetic complete) (see Rose et al., Methods in Yeast Genetics: A Laboratory Course Manual (CSHLP, 1990)) lacking histidine and containing sufficient 3-aminotriazole to inhibit growth such that yeast only grow when the HIS3 gene product is expressed from the FUS1 promoter following stimulation of the STE2 receptor by α-factor. Lack of growth selection is achieved by leaving out the 3-aminotriazole and adding histdine.
# Acid phosphatase activity in the yeast growth medium was quantitated using a […] assay with the substrate para-nitrophenyl phosphate (pNPP), measuring the appearance of yellow color (Payne et al., Gene 163, 19-26 (1995). When yeast were grown under various growth conditions (+/-saturating (500 nM) concentrations of α-factor, between 26% and 69% of the total acid phosphatase activity is secreted into the medium (Table 1).
substance,measurement,setting,value
α-factor,Increase in acid phosphatase activity in the medium compared to absence of α-factor,"500 nM α-factor, no growth selection, 24 hr",16-20 fold
same,% of total acid-phosphatase activity in medium,"alpha-factor +, growth selection +",63%
same,% of total acid-phosphatase activity in medium,"alpha-factor +, growth selection -",69%
same,Acid phosphatase activity in the medium,"24 hours, selection +, alpha-factor +, clone #1",0.01279 OD405 units/minute
same,Acid phosphatase activity in the medium,"24 hours, selection +, alpha-factor +, clone s3",0.02892 OD405 units/minute
same,Acid phosphatase activity in the medium,"24 hours, selection -, alpha-factor +, clone #1",0.06481 OD405 units/minute
same,Acid phosphatase activity in the medium,"24 hours, selection -, alpha-factor +, clone s3",0.1001 OD405 units/minute
same,Acid phosphatase activity in the medium,"48 hr, growth selection (+10 mM 3-aminotriazole), 500 nM alpha-factor, clone #1",0.05768 OD405 units/minute
same,Acid phosphatase activity in the medium,"48 hr, growth selection (+10 mM 3-aminotriazole), 500 nM alpha-factor, clone s3",0.1062 OD405 units/minute
same,Induction ratio,"48 hr, clone #1",32.4
same,Induction ratio,"48 hr, clone s3",58.7
same,Increase in acid phosphatase activity in the medium compared to absence of α-factor,"with growth selection, 48 hours, 0.5 µM",32-58 fold
